In US8975232B2, “Macrocyclic kinase inhibitors and uses thereof” (President and Fellows of Harvard College, priority 2010, dated 2015):
Like-named read-outs stand apart in the source and are kept apart here.

Experiments:
Lck = molecular target: T1, Lck (Mus musculus, UniProt P06240); assay: Continuous spectrophotometric kinase activity assay; type: biochemical, murine
T1 construct: murine Lck (residues 227-509); made in house

Src kinase domain = molecular target: T2, Src kinase domain (Gallus gallus, UniProt P00523); assay: Fluorescence anisotropy binding assay; parameters: species or system chicken; details: fluorescein-labeled macrocycle, read-out: dissociation constant (KD)
T2 construct: chicken c-Src (residues 251-533 and residues 83-533); made in house
Protocol: The change in fluorescence anisotropy of fluorescein-labeled MC1, MC4 and MC9 at 518 nm upon excitation at 492 nm was monitored with a HORIBA Jobin Yvon FluoroMax-4 (Edison, N.J.) spectrofluorimeter. Kinase was titrated to 0.5 μM of the fluorescently labeled macrocycle in 100 mM Tris pH 8.0, 10 mM MgCl2 at 25° C. After equilibration, the increase in the fluorescence anisotropy of the fluorescently labeled ligand was recorded and fitted against a quadratic binding equation in Kaleidagraph (Synergy Software, Reading Pa.) to yield the dissociation constant KD.
To clarify the inhibitory mechanism of the compounds further, the binding affinity of fluorescently labeled MC1, MC4, and MC9 to Src kinase domain was determined in a fluorescence anisotropy assay (FIG. 21).

HCK = HCK (Homo sapiens, UniProt P08631); assay: Continuous spectrophotometric kinase activity assay; type: biochemical; parameters: Kinase domain constructs of human c-Abl (residues 229-512), chicken c-Src (residues 251-533 and residues 83-533), murine Lck (residues 227-509), and human Hck (residues 166-445); made in house
[1] = 5 μM ATP, 100 μM Src optimal peptide
[2] = 5 μM ATP, 300 μM Src optimal peptide
[3] = 250 μM ATP, 300 μM Src optimal peptide

HCK, sequence (P08631 262-515 limits assumed): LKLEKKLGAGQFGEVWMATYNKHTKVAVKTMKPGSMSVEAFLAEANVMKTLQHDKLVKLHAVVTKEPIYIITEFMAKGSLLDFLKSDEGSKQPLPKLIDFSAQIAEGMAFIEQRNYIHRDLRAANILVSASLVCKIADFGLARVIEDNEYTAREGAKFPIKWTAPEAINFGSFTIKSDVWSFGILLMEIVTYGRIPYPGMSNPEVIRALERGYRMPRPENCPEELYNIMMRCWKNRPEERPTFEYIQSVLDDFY
T1 sequence (P06240 227-509): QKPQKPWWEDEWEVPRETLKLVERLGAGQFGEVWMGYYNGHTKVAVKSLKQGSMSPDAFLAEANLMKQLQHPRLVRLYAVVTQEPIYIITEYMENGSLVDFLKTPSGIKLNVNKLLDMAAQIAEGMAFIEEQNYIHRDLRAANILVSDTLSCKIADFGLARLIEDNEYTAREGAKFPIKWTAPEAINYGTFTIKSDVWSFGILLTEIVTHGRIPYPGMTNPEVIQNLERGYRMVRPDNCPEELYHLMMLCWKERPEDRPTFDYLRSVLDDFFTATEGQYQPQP

NC(=O)[C@@H]1CCCNC(=O)[C@H](Cc2ccc([N+](=O)[O-])cc2)NC(=O)[C@H](Cc2ccco2)NC(=O)[C@H](CC2CC2)NC(=O)/C=C/C(=O)N1 [trans-A10-B1-C5-D6]
IC50 (Lck; [1]): > 100 µM
IC50 (Lck; [2]): > 100 µM
IC50 (Lck; [3]): > 100 µM
Kd (Src kinase domain; 250 μM AMP-PNP): 1.7 µM
Kd (Src kinase domain; no competitor): 0.3 µM
IC50 (HCK; [1]): > 100 µM
IC50 (HCK; [2]): > 100 µM
IC50 (HCK; [3]): > 100 µM
